Assay results published in the supplement of paper PMC11061612.

Columns and labels:
MKN1 (Gastric Carcinoma) [1] = assay: Bliss excess, mean over the matrix (fraction); higher = more synergy
Summary of the method: (§1)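 Bliss excess equals the observed combination effect minus the expected value EA + EB − EA·EB, where EA and EB are the effects of each agent alone. Combination Emax is the second-highest inhibition within the matrix. Inhibition was scaled from CellTiter-Glo 2.0 luminescence, with 0 set by vehicle wells and 1 by blank wells, after 72 hours of two-drug dosing of cells plated in 1536-well plates.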

[2] = system: NCI-H841 (Small Cell Lung Carcinoma); assay: as above
Summary of the method: as §1

EB2 (Burkitt's Lymphoma) = assay: combination Emax (second highest fraction inhibited in the dose matrix, 72 h); higher = more inhibition; extreme values may be limits of the assay
Summary of the method: as §1

A204 (Rhabdomyosarcoma) = assay: as above
Summary of the method: as §1

A101D (Melanoma) = assay: as above
Summary of the method: as §1

MKN1 (Gastric Carcinoma) [3] = assay: as above
Summary of the method: as §1

[4] = system: NCI-H441 (Lung Adenocarcinoma); assay: as above
Summary of the method: as §1

[5] = system: GA-10 (Burkitt's Lymphoma); assay: as above
Summary of the method: as §1

[6] = system: NCI-H841 (Small Cell Lung Carcinoma); assay: as above
Summary of the method: as §1

[7] = system: DU-4475 (Breast Carcinoma); assay: as above
Summary of the method: as §1

[8] = system: KYSE-220 (Esophageal Squamous Cell Carcinoma); assay: as above
Summary of the method: as §1

769-P (Kidney Carcinoma) = assay: as above
Summary of the method: as §1

COLO-792 (Melanoma) = assay: as above
Summary of the method: as §1

[9] = system: HCC1395 (Breast Carcinoma); assay: as above
Summary of the method: as §1

| SMILES | Bliss excess (MKN1 (Gastric Carcinoma) [1]) | Bliss excess [2] | combination Emax (EB2 (Burkitt's Lymphoma)) | combination Emax (A204 (Rhabdomyosarcoma)) | combination Emax (A101D (Melanoma)) | combination Emax (MKN1 (Gastric Carcinoma) [3]) | combination Emax [4] | combination Emax [5] | combination Emax [6] | combination Emax [7] | combination Emax [8] | combination Emax (769-P (Kidney Carcinoma)) | combination Emax (COLO-792 (Melanoma)) | combination Emax [9] |
| --- | --- | --- | --- | --- | --- | --- | --- | --- | --- | --- | --- | --- | --- | --- |
| CN(C)CCCOc1ccc(-c2ccc3ncc4c(c3c2)n(C2CCOCC2)c(=O)n4C)cn1 [AZD0156] + O=C(c1cc(Cc2n[nH]c(=O)c3ccccc23)ccc1F)N1CCN(C(=O)C2CC2)CC1 [Olaparib] (first compound max 3 µM, partner max 3 µM) | 0.0242 | -0.0483 | 0.496 | 0.467 | 0.411 | 0.307 | 0.328 | 0.741 | 0.208 | 0.434 | 0.54 | 0.16 | 0.294 | 0.315 |
| C=CCn1c(=O)c2cnc(Nc3ccc(N4CCN(C)CC4)cc3)nc2n1-c1cccc(C(C)(C)O)n1 [AZD1775] + C1CN(CCC1(C(=O)N[C@@H](CCO)C2=CC=C(C=C2)Cl)N)C3=NC=NC4=C3C=CN4 [Capivasertib] (first compound max 3 µM, partner max 3 µM) | -0.0236 | -0.0788 | 0.822 | 0.529 | 0.757 | 0.821 | 0.454 | 0.964 | 0.676 | 0.998 | 0.85 | 0.665 | 0.651 | 0.777 |
| COc1nnc2ccc(N3CCC(c4ccc(OCCN5CCN(C)C(=O)[C@H]5C)cc4)CC3)nn12 [AZD5153] + C=CCn1c(=O)c2cnc(Nc3ccc(N4CCN(C)CC4)cc3)nc2n1-c1cccc(C(C)(C)O)n1 [AZD1775] (first compound max 1 µM, partner max 1 µM) | 0.0363 | -0.0299 | 0.796 | 0.471 | 0.737 | 0.926 | 0.436 | 0.996 | 0.503 | 1 | 0.804 | 0.956 | 0.856 | 0.524 |
| COc1nnc2ccc(N3CCC(c4ccc(OCCN5CCN(C)C(=O)[C@H]5C)cc4)CC3)nn12 [AZD5153] + CC1(C)CCC(CN2CCN(c3ccc(C(=O)NS(=O)(=O)c4ccc(NCC5CCOCC5)c([N+](=O)[O-])c4)c(Oc4cnc5[nH]ccc5c4)c3)CC2)=C(c2ccc(Cl)cc2)C1 [Venetoclax] (first compound max 1 µM, 7x7, partner max 1 µM) | -0.0062 | -0.0317 | 0.559 | 0.416 | 0.67 | 0.57 | 0.381 | 0.693 | 0.317 | 0.8 | 0.617 | 0.701 | 0.583 | 0.411 |
| COc1nnc2ccc(N3CCC(c4ccc(OCCN5CCN(C)C(=O)[C@H]5C)cc4)CC3)nn12 [AZD5153] + CCN(CCO)CCCOc1ccc2c(Nc3cc(CC(=O)Nc4cccc(F)c4)[nH]n3)ncnc2c1 [AZD2811] (first compound max 1 µM, 7x7, partner max 1 µM) | -0.0033 | 0.0001 | 0.589 | 0.466 | 0.693 | 0.807 | 0.381 | 0.74 | 0.428 | 0.944 | 0.677 | 0.711 | 0.563 | 0.398 |
| COc1nnc2ccc(N3CCC(c4ccc(OCCN5CCN(C)C(=O)[C@H]5C)cc4)CC3)nn12 [AZD5153] + C[C@@H]1COCCN1C2=NC(=NC(=C2)C3(CC3)[S@](=N)(=O)C)C4=C5C=CNC5=NC=C4 [AZD6738] (first compound max 1 µM, 7x7, partner max 10 µM) | 0.0483 | 0.0202 | 0.764 | 0.573 | 0.805 | 0.936 | 0.562 | 0.962 | 0.73 | 1 | 0.863 | 0.977 | 0.72 | 0.671 |
| COc1nnc2ccc(N3CCC(c4ccc(OCCN5CCN(C)C(=O)[C@H]5C)cc4)CC3)nn12 [AZD5153] + Cc1c2c(nn1C)CSCc1cc(n(C)n1)CSc1cc(c3ccccc3c1)OCCCc1c(C(=O)O)n(C)c3c-2c(Cl)ccc13 [AZD5991] (first compound max 1 µM, 7x7, partner max 1 µM) | 0.0194 | -0.0119 | 0.608 | 0.73 | 0.924 | 0.866 | 0.384 | 0.967 | 0.565 | 0.974 | 0.842 | 0.727 | 1 | 0.817 |
| COc1nnc2ccc(N3CCC(c4ccc(OCCN5CCN(C)C(=O)[C@H]5C)cc4)CC3)nn12 [AZD5153] + Cn1cnc2c(F)c(Nc3ccc(Br)cc3Cl)c(C(=O)NOCCO)cc21 [Selumetinib] (first compound max 1 µM, 7x7, partner max 10 µM) | -0.0081 | -0.0121 | 0.502 | 0.484 | 0.872 | 0.619 | 0.453 | 0.714 | 0.328 | 1 | 0.808 | 0.659 | 0.882 | 0.305 |
| NC1(C(=O)N[C@@H](CCO)c2ccc(Cl)cc2)CCN(c2ncnc3[nH]ccc23)CC1 [Capivasertib] + CC(=O)c1c(C)c2cnc(Nc3ccc(N4CCNCC4)cn3)nc2n(C2CCCC2)c1=O [Palbociclib] (first compound max 10 µM, 7x7, partner max 10 µM) | 0.0106 | -0.0365 | 0.566 | 0.517 | 0.581 | 0.463 | 0.348 | 0.97 | 0.293 | 0.295 | 0.712 | 0.773 | 0.465 | 0.395 |
| NC1(C(=O)N[C@@H](CCO)c2ccc(Cl)cc2)CCN(c2ncnc3[nH]ccc23)CC1 [Capivasertib] + CC(C)n1c(=O)n(C)c2cnc3cc(F)c(-c4ccc(OCCCN5CCCCC5)nc4)cc3c21 [AZD1390] (first compound max 10 µM, 7x7, partner max 0.3 µM) | -0.0379 | -0.0909 | 0.61 | 0.382 | 0.46 | 0.39 | 0.252 | 0.74 | 0.273 | 0.331 | 0.49 | 0.34 | 0.444 | 0.383 |
| NC1(C(=O)N[C@@H](CCO)c2ccc(Cl)cc2)CCN(c2ncnc3[nH]ccc23)CC1 [Capivasertib] + CCN(CCO)CCCOc1ccc2c(Nc3cc(CC(=O)Nc4cccc(F)c4)[nH]n3)ncnc2c1 [AZD2811] (first compound max 10 µM, 7x7, partner max 1 µM) | -0.0067 | -0.0415 | 0.653 | 0.489 | 0.552 | 0.531 | 0.317 | 0.918 | 0.426 | 0.679 | 0.623 | 0.422 | 0.661 | 0.455 |
| NC1(C(=O)N[C@@H](CCO)c2ccc(Cl)cc2)CCN(c2ncnc3[nH]ccc23)CC1 [Capivasertib] + COc1nnc2ccc(N3CCC(c4ccc(OCCN5CCN(C)C(=O)[C@H]5C)cc4)CC3)nn12 [AZD5153] (first compound max 10 µM, 7x7, partner max 1 µM) | 0.0481 | -0.0002 | 0.707 | 0.517 | 0.66 | 0.782 | 0.379 | 0.927 | 0.405 | 0.979 | 0.838 | 0.729 | 0.94 | 0.395 |
| NC1(C(=O)N[C@@H](CCO)c2ccc(Cl)cc2)CCN(c2ncnc3[nH]ccc23)CC1 [Capivasertib] + C[C@@H]1COCCN1C2=NC(=NC(=C2)C3(CC3)[S@](=N)(=O)C)C4=C5C=CNC5=NC=C4 [AZD6738] (first compound max 10 µM, 7x7, partner max 10 µM) | -0.0639 | -0.0622 | 0.831 | 0.467 | 0.803 | 0.807 | 0.448 | 1 | 0.457 | 0.987 | 0.869 | 0.88 | 0.549 | 0.581 |
| NC1(C(=O)N[C@@H](CCO)c2ccc(Cl)cc2)CCN(c2ncnc3[nH]ccc23)CC1 [Capivasertib] + Cn1cnc2c(F)c(Nc3ccc(Br)cc3Cl)c(C(=O)NOCCO)cc21 [Selumetinib] (first compound max 10 µM, 7x7, partner max 10 µM) | 0.081 | 0.0115 | 0.628 | 0.498 | 0.785 | 0.552 | 0.351 | 0.77 | 0.308 | 1 | 0.763 | 0.426 | 0.8 | 0.425 |
| CS(=O)(=O)CCNCc1ccc(-c2ccc3ncnc(Nc4ccc(OCc5cccc(F)c5)c(Cl)c4)c3c2)o1 [Lapatinib] + C[C@@H](Oc1cc(-c2cnn(C3CCNCC3)c2)cnc1N)c1c(Cl)ccc(F)c1Cl [Crizotinib] (first compound max 10 µM, 7x7, partner max 10 µM) | 0.0038 | -0.0378 | 0.768 | 0.498 | 0.971 | 0.922 | 0.6 | 0.98 | 0.356 | 0.989 | 0.994 | 0.966 | 0.981 | 0.906 |
| CS(=O)(=O)CCNCc1ccc(-c2ccc3ncnc(Nc4ccc(OCc5cccc(F)c5)c(Cl)c4)c3c2)o1 [Lapatinib] + NC1(c2ccc(-c3nc4ccn5c(=O)[nH]nc5c4cc3-c3ccccc3)cc2)CCC1 [MK-2206] (first compound max 10 µM, 7x7, partner max 10 µM) | 0.0099 | -0.0246 | 0.834 | – | 0.967 | 0.925 | 0.473 | – | 0.17 | 0.983 | 0.981 | 0.978 | – | 0.969 |
| CC(=O)c1c(C)c2cnc(Nc3ccc(N4CCNCC4)cn3)nc2n(C2CCCC2)c1=O [Palbociclib] + CC1(C)CCC(CN2CCN(c3ccc(C(=O)NS(=O)(=O)c4ccc(NCC5CCOCC5)c([N+](=O)[O-])c4)c(Oc4cnc5[nH]ccc5c4)c3)CC2)=C(c2ccc(Cl)cc2)C1 [Venetoclax] (first compound max 10 µM, 7x7, partner max 1 µM) | -0.0394 | -0.0463 | 0.448 | 0.308 | 0.424 | 0.249 | 0.224 | 0.95 | 0.0903 | 0.153 | 0.189 | 0.814 | 0.29 | 0.0711 |
